Source: patent US20230348459A1, “PYRROLIDINE COMPOUND AND USE THEREOF” (SIMCERE PHARMACEUTICAL CO., LTD., priority 2020, published 2023)

Tested on: MCF-7 intracranial tumor
Experiment: Growth inhibition in MCF-7 intracranial tumor model in mice
Conditions: 30 mg/kg PO once daily
Description: Animal information: NPG mice (female, 6-8 weeks, body weight: about 17-29 g) were purchased from Beijing Vitalstar Biotechnology Co., Ltd. The mice were fed in SPF environment and each cage position was individually ventilated.
Cell culture: The human breast cancer MCF-7 cell line was cultured in vitro in EMEM (cell culture medium) supplemented with 10% fetal bovine serum, 1% Pen Strep and 10 µg/ml recombinant human insulin in a 37° C., 5% CO2 incubator. Conventional digestion treatment with 0.25% trypsin-EDTA digestion solution was carried out twice weekly for passage. When the cell saturation was 80%-90%, and the number reached the requirement, the cells were collected and counted.
Cell inoculation: 15 µl/(containing 2 × 10^6) MCF-7 cell suspension was inoculated into the brain of mice using a stereotaxic apparatus, a micro-injection pump and a miniature handheld cranial drill, and the mice were subcutaneously inoculated with 17β-estradiol tablets three days before the cell inoculation. On day 8 after cell inoculation, the mice were randomized into groups for administration according to the body weight thereof, and the day of grouping was Day 0.
11 mice were in the vehicle group and 8 mice were in the administration group. Mice in all groups were continuously administered until the mice died, which were euthanized due to poor state or the end of the experiment.
The body weight of the mice was measured twice weekly, and the survival status of the mice was observed.
At the end of the experiment on Day 48, all mice were euthanized.

SMILES: C[C@@H]1Cc2c([nH]c3ccccc23)[C@@H](c2ccc(N[C@H]3CCN(CCCF)C3)cn2)N1CC(F)(F)F [Example 3, N-((S)-1-(3-fluoropropyl)pyrrolidin-3-yl)-6-((1S,3R)-3-methyl-2-(2,2,2-trifluoroethyl)-2,3,4,9-tetrahydro-1H-pyridino[3,4-b]indol-1-yl)pyridine-3-amine]
- Deaths in group (until Day 48): No death case occurred
- Survival period vs solvent control or Fulvestrant (P < 0.01): significantly prolonged
